Experimental data: PMC12193579, “Pro-Apoptotic Activity of 1-(4,5,6,7-Tetrabromo-1H-benzimidazol-1-yl)propan-2-one, an Intracellular Inhibitor of PIM-1 Kinase in Acute Lymphoblastic Leukemia and Breast Cancer Cells” (International Journal of Molecular Sciences, 2025)
Entries after “also recorded” stand apart in the source; their conditions may differ. Read-outs that look alike come from different tables or passages of the source.

Columns and labels:
[1] = tested on: mitochondria polarization; parameters: method as in PMID 15566294; details: up to a 10 µM concentration; cited from earlier work
Jurkat cells = tested on: Jurkat cells; parameters: method as in PMID 15566294; details: read-out: DC50 value, apoptosis of Jurkat cells; cited from earlier work
LNCaP cell line = tested on: LNCaP cell line; parameters: method as in PMID 29246854; details: 48 h of exposure to 10 μM; cited from earlier work
[2] = tested on: MDA-MB-231 (breast carcinoma); experiment: MTT-based viability assay, MDA-MB-231; assay type: cell-based, human; details: for IC50: Homo sapiens, read-out: IC50 [µM] MDA-MB-231
Protocol: (§1) 3. The cytotoxicity of the newly obtained inhibitors, i.e., 1, 2, and 4 was tested towards four cell lines, i.e., CCRF-CEM (acute lymphoblastic leukemia ALL), MCF-7 (breast carcinoma), MDA-MB-231 (triple negative breast carcinoma), and Vero (Cercopithecus aethiops kidney).
(§2) The CCRF-CEM (acute lymphoblastic leukemia, ALL) and MDA-MB-231 (triple-negative breast adenocarcinoma) cell lines were obtained from the European Collection of Authenticated Cell Cultures (ECACC), while the MCF-7 (hormone-dependent breast adenocarcinoma) and Vero (Cercopithecus aethiops kidney) cell lines were purchased from the American Type Culture Collection (ATCC, Manassas, VA, USA). CCRF-CEM cells were maintained in RPMI-1640 medium, whereas MCF-7 and MDA-MB-231 cells were cultured in DMEM (Sigma-Aldrich Chemical Company, St. Louis, MO, USA). Vero cells were cultured in minimum essential medium eagle (MEM; Sigma-Aldrich). All media were supplemented with 10% fetal bovine serum (FBS), 2 mM L-glutamine, and antibiotics (100 U/mL penicillin and 100 µg/mL streptomycin) (Sigma-Aldrich). Cells were grown in 75-cm^2 culture flasks (Googlab Scientific, Rakocin, Poland) in a humidified atmosphere containing 5% CO2 at 37 °C. All experiments were performed using exponentially growing cultures. Stock solutions of the test compounds were prepared in DMSO and stored at –80 °C for up to one month.
(§3) Following incubation with the tested compounds, the MTT assay was carried out as previously described. Optical density was measured at 570 nm using a BioTek microplate reader (Winooski, VT, USA). All measurements were performed in at least three independent biological replicates.

[3] = tested on: Vero (Cercopithecus aethiops kidney); experiment: MTT-based viability assay, Vero; assay type: cell-based; details: Chlorocebus sabaeus, 48 h, read-out: IC50 [µM] Vero
Protocol: as §1, §2, §3

[4] = tested on: CK2 in CCRF-CEM cells (Ser529 in NF-κB p65); experiment: PhosFlow analysis of NF-κB p65 Ser529 phosphorylation, CCRF-CEM; assay type: cell-based, human; details: 16 µM, 24 h
Protocol: CCRF-CEM cells were prepared following the BD PhosFlow™ Protocol for Human PBMCs using NF-κB p65 (pS529)-PE (#558423), BD PhosFlow™ Perm Buffer III (#558050), Cytofix Fixation Buffer (#554655), and Stain Buffer FBS (#554656), all obtained from Becton Dickinson. Flow cytometric analysis was performed using a BD Accuri C6 Plus cytometer (Becton Dickinson) according to the manufacturer’s instructions.

CCRF-CEM cells [5] = experiment: cell cycle progression by flow cytometry, CCRF-CEM; assay type: cell-based, human; details: 16 µM, 48 h; control 33%
Protocol: Since CK2 and PIM kinases regulate cell cycle progression, their inhibition may alter the distribution of cells across different cell cycle phases. […] For control cells, the percentage of G2/M cells was 17%. In addition to those changes, we observed cells in the sub-G1 phase, which are apoptotic cells. Accumulation of cells in this phase reflects DNA degradation characteristic of apoptotic cells. The largest percentage of these cells, i.e., 32% was determined in 16 µM 1-treated cells (Figure 6a,b).
(§4) CCRF-CEM and MCF-7 cells were cultured in 6-well plates and treated with the tested compounds for 48 h. After exposure to the compounds, the cells were collected, washed with cold PBS, and fixed in 70% ethanol at –20 °C for at least 24 h. Subsequently, the cells were washed in PBS and stained according to the procedure previously described by our group. The cellular DNA content was measured by flow cytometry using a BD Accuri C6 Plus flow cytometer (BD Biosciences, San Jose, CA, USA). The resulting DNA histograms were analyzed with BD Accuri C6 Plus software (San Diego, CA, USA) to assess the distribution of cells across different phases of the cell cycle.

CCRF-CEM cells [6] = experiment: mitochondrial membrane potential (ΔΨm) JC-1 assay, CCRF-CEM; assay type: cell-based, human; details: 16 µM, 48 h
Protocol: The mitochondrial membrane potential was evaluated by flow cytometry using 5,5′,6,6′-tetrachloro-1,1′,3,3′-tetraethylbenzimidazolocarbocyanine iodide (JC-1; Sigma-Aldrich), as previously described.

CCRF-CEM cells [7] = experiment: annexin V/propidium iodide apoptosis, flow cytometry, CCRF-CEM; assay type: cell-based, human; details: 48 h, annexin V binding
Protocol: The results obtained for CCRF-CEM and MCF-7 are shown in Figure 3 and Figure 4, respectively. […] 1, 79.6% of cells were apoptotic.
CCRF-CEM cells were seeded in 24-well plates at a density of 2 × 10^5 cells/mL. The cells were treated with the tested compounds at concentrations of 8, 16, and 32 µM, followed by incubation for 48 h. After treatment, the cells were harvested and processed according to the previously described protocol. Flow cytometric measurements were conducted within 1 h of cell labeling. Viable, necrotic, early apoptotic, and late apoptotic cells were identified using a BD Accuri C6 Plus flow cytometer and analyzed with BD Accuri C6 Plus software, version 1.0.34.1 (BD Biosciences, San Jose, CA, USA).

MCF-7 cells = experiment: cell cycle progression by flow cytometry, MCF-7; assay type: cell-based, human; details: 8 µM, 48 h; control 17%
Protocol: Additionally, we observed the prolongation of G2/M in MCF-7 treated with 1 at the highest concentration. […] 1 induced G2/M phase arrest in MCF-7 with the highest effect detected for the 16 µM concentration, manifested as 32% cells in that stage, whereas in the control, the percentage of G2/M cells was 22%.
as §4

MCF-7 (breast carcinoma) = experiment: MTT-based viability assay, MCF-7; assay type: cell-based, human; details: for IC50: Homo sapiens, read-out: IC50 [µM] MCF-7; for SI (selectivity index) MCF-7: IC50 for Vero/IC50 for cancer cells
Protocol: as §1, §2, §3

[8] = tested on: hormone-sensitive human prostate cancer cell line LNCaP; parameters: method as in PMID 22698781; details: cited from earlier work
[9] = tested on: CCRF-CEM (acute lymphoblastic leukemia); experiment: MTT-based viability assay, CCRF-CEM; assay type: cell-based, human; details: for IC50: Homo sapiens, CCRF-CEM, 48 h, read-out: IC50 [µM] CCRF-CEM; for SI (selectivity index) CCRF-CEM: IC50 for Vero/IC50 for cancer cells
Protocol: as §1, §2, §3

PIM-1 kinase = biological target: T1, PIM-1 kinase (Homo sapiens, UniProt P11309); experiment: radiometric P81 filter isotopic kinase assay, PIM-1; assay type: biochemical; details: for remaining activity at 2 µM: cpd. concentration 2 μM; for remaining activity at 2 µM / remaining activity at 5 µM / remaining activity at 20 µM: read-out: PIM-1 Residual Activity [%]; for remaining activity at 5 µM: cpd. concentration 5 μM; for remaining activity at 20 µM: cpd. concentration 20 μM
T1 construct: made in house
T1 sequence (P11309 whole entry): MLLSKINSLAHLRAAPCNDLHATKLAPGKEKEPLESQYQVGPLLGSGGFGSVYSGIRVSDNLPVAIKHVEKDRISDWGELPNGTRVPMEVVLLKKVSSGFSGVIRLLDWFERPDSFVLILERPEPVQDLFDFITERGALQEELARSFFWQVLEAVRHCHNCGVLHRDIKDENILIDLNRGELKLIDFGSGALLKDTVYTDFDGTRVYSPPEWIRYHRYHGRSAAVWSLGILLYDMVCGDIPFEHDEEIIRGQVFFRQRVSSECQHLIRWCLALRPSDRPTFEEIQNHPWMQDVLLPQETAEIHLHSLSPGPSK
Protocol: (§5) Synthetic peptide […] served as the substrate for CK2, while peptide […] was used as the substrate for PIM-1.
(§6) The synthesized compounds were evaluated for their inhibitory activity against human CK2α, the human CK2 holoenzyme, and PIM-1 using the P81 filter-based isotopic assay, as previously described. […] The experimental data were fitted to a dose–response curve using non-linear regression analysis (variable slope) Y = Bottom + (Top − Bottom)/(1 + 10^((LogIC50 − X) × HillSlope) equation in GraphPad Prism (Prism 9, version 9.0.1).

[10] = biological target: T2, recombinant human CK2 catalytic subunit (rhCK2α) (Homo sapiens, UniProt P68400); experiment: radiometric P81 filter isotopic kinase assay, CK2α; assay type: biochemical; details: for remaining activity at 2 µM: cpd. concentration 2 μM; for remaining activity at 2 µM / remaining activity at 5 µM / remaining activity at 20 µM: read-out: CK2α Residual Activity [%]; for remaining activity at 5 µM: cpd. concentration 5 μM; for remaining activity at 20 µM: cpd. concentration 20 μM
T2 construct: made in house
T2 sequence (P68400 whole entry): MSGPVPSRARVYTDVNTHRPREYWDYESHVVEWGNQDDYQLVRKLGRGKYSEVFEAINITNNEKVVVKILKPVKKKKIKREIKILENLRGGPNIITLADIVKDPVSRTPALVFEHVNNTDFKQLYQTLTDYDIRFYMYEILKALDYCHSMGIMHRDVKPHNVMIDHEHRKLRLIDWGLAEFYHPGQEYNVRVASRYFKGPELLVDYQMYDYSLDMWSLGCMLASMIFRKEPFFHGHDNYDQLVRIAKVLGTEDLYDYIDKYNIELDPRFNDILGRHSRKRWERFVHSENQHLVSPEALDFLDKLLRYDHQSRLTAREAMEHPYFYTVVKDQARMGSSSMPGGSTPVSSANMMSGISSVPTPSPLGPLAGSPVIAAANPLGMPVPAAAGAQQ
Protocol: as §5, §6

In the case of `CN(C)c1nc2c(Br)c(Br)c(Br)c(Br)c2[nH]1` [DMAT, 2-Dimethylamino-4,5,6,7-tetrabromo-1H-benzimidazole], the “side effect on mitochondria polarization” value [1] is listed as “does not display any side effect on mitochondria polarization” and the DC50 (Jurkat cells) is listed as 2.7 µM.
For `OCC1OC(n2cnc3c(Br)c(Br)c(Br)c(Br)c32)CC1O` [K164, 1-(β-D-2′-deoxyribofuranosyl)-4,5,6,7-tetrabromo-1H-benzimidazole], the “apoptotic cells, LNCaP” value (LNCaP cell line) is given as 91.8%.
With `Brc1c(Br)c(Br)c2[nH]cnc2c1Br` [TBBi, 4,5,6,7-tetrabromo-1H-benzimidazole, reference compound] the IC50 ([2]; MDA-MB-231, 48 h) was 29.7 ± 2.23 µM, the IC50 [3] was 24.8 ± 0.9 µM and the “p65-P-negative CCRF-CEM cells” value [4] was 28%. The “CCRF-CEM cells in the S phase” value (CCRF-CEM cells [5]) was 19%, the “CCRF-CEM cells with reduced ΔΨm” value (CCRF-CEM cells [6]) was 37% and the “apoptotic CCRF-CEM cells” value (CCRF-CEM cells [7]; 8 µM) was 16%. The “apoptotic CCRF-CEM cells” value (CCRF-CEM cells [7]; 16 µM) was 44%, the “apoptotic CCRF-CEM cells” value (CCRF-CEM cells [7]; 32 µM) was 95% and the “MCF-7 cells in the S phase” value (MCF-7 cells) was 12%. For the same compound, the IC50 (MCF-7 (breast carcinoma); MCF7, 48 h) was 12.6 ± 2.72 µM, the “LD50 against LNCaP” value [8] was “≈ 20 µM” and the IC50 [9] was 17.6 ± 0.67 µM. It also gave an IC50 (PIM-1 kinase) of 0.53 ± 0.04 µM.
For `Brc1c(Br)c(Br)c2[nH]nnc2c1Br` [TBBt, 4,5,6,7-tetrabromo-1(2)H-benzotriazole], the DC50 (Jurkat cells) is listed as 17 µM.
In the case of `Ic1c(I)c(I)c2[nH]cnc2c1I` [TIBI, 4,5,6,7-tetraiodo-1H-benzimidazole], the “LD50 against LNCaP” value [8] is given as “≈ 20 µM”.
For `CC(O)Cn1cnc2c(Br)c(Br)c(Br)c(Br)c21` (stereo not drawn) [compound 2, 1-(4,5,6,7-tetrabromo-1H-benzimidazol-1-yl)propan-2-ol], the IC50 ([2]; MDA-MB-231, MTT, 48 h) was 28.2 ± 3.27 µM, the “SI (selectivity index) MDA-MB-231” value ([2]; IC50 for Vero/IC50 for cancer cells) was 3.4 and the IC50 ([3]; MTT, non-cancerous cells) was 96.1 ± 4.76 µM. For the same compound, the IC50 [10] was 11.1 ± 0.15 µM, the remaining activity at 2 µM [10] was 70.9 ± 0.9% and the remaining activity at 5 µM [10] was 41.8 ± 2.3%. The remaining activity at 20 µM [10] was 20.1 ± 1.2%, the IC50 (MCF-7 (breast carcinoma); MCF7, MTT, 48 h) was 18.4 ± 0.41 µM and the “SI (selectivity index) MCF-7” value (MCF-7 (breast carcinoma)) was 5.21. For the same compound, the IC50 ([9]; MTT) was 58.2 ± 5.86 µM, the “SI (selectivity index) CCRF-CEM” value [9] was 1.65 and the IC50 (PIM-1 kinase) was 2.41 ± 0.29 µM. For the same compound, the remaining activity at 2 µM (PIM-1 kinase) was 58 ± 2.4%, the remaining activity at 5 µM (PIM-1 kinase) was 26.4 ± 1.7% and the remaining activity at 20 µM (PIM-1 kinase) was 9.3 ± 0.3%.
For `CC(=O)CCn1cnc2c(Br)c(Br)c(Br)c(Br)c21` [compound 3, 4-(4,5,6,7-Tetrabromo-1H-benzimidazol-1-yl)butan-2-one], the “inhibition of CK2 kinase (in words)” value [10] was “inactive; also recorded: very weak”, the remaining activity at 2 µM [10] was 102 ± 8.9% and the remaining activity at 5 µM [10] was 89.2 ± 8.6%. The remaining activity at 20 µM [10] was 82.8 ± 15.4%, the “inhibition of PIM-1 kinase (in words)” value (PIM-1 kinase) was “inactive; also recorded: very weak” and the remaining activity at 2 µM (PIM-1 kinase) was 82.5 ± 4.2%. For the same compound, the remaining activity at 5 µM (PIM-1 kinase) was 67.4 ± 0.7% and the remaining activity at 20 µM (PIM-1 kinase) was 62.6 ± 0.8%.
In the case of `CC(O)CCn1cnc2c(Br)c(Br)c(Br)c(Br)c21` (stereo not drawn) [compound 4], the IC50 ([2]; MDA-MB-231, MTT, 48 h) is reported as > 200 µM, the IC50 ([3]; MTT, non-cancerous cells) is reported as 132 ± 19.4 µM and the remaining activity at 2 µM [10] is reported as 72.1 ± 3%. It also gave a remaining activity at 5 µM [10] of 21.3 ± 1.9%, a remaining activity at 20 µM [10] of 15.6 ± 0.3% and an IC50 (MCF-7 (breast carcinoma); MCF7, MTT, 48 h) of 41.9 ± 8.37 µM. For the same compound, the “SI (selectivity index) MCF-7” value (MCF-7 (breast carcinoma)) was 3.15, the IC50 ([9]; MTT) was 75.3 ± 10.3 µM and the “SI (selectivity index) CCRF-CEM” value [9] was 1.75. For the same compound, the IC50 (PIM-1 kinase) was 3.08 ± 0.07 µM, the remaining activity at 2 µM (PIM-1 kinase) was 66.9 ± 1.1% and the remaining activity at 5 µM (PIM-1 kinase) was 29.1 ± 0.1%. It also gave a remaining activity at 20 µM (PIM-1 kinase) of 21.4 ± 0.2%.
